Reference: US10329272B2 (priority 2015, dated 2019)

Experiments:
[1] = test system: Botryotinia fuckeliana (Botrytis cinerea); test: Botryotinia fuckeliana (Botrytis cinerea)/Liquid Culture (Gray Mould); type: cell-based; conditions: liquid culture, growth inhibition photometrically 3-4 days after application, compared to untreated control
Description: Biological Examples Botryotinia fuckeliana (Botrytis cinerea)/Liquid Culture (Gray Mould)
(§1) Conidia of the fungus from cryogenic storage are directly mixed into nutrient broth (Vogels broth). After placing a (DMSO) solution of test compound into a microtiter plate (96-well format), the nutrient broth containing the fungal spores is added. The test plates are incubated at 24° C. and the inhibition of growth is determined photometrically 3-4 days after application.

[2] = test system: Glomerella lagenarium (Colletotrichum lagenarium); test: Glomerella Lagenarium (Colletotrichum Lagenarium)/Liquid Culture (Anthracnose); type: cell-based; conditions: Colletotrichum orbiculare, liquid culture, growth inhibition photometrically 3-4 days after application, compared to untreated control
Description: Glomerella Lagenarium (Colletotrichum Lagenarium)/Liquid Culture (Anthracnose)
as §1, with “(PDB potato dextrose” for “(Vogels”, “measured” for “determined”

Fusarium culmorum = test: microbe, parasite or virus in culture; type: cell-based; conditions: read-out: control of Fusarium culmorum
Gaeumannomyces graminis = test: Gaeumannomyces Graminis/Liquid Culture (Take-all of Cereals); type: cell-based; conditions: liquid culture, growth inhibition photometrically 4-5 days after application, compared to untreated control
Description: Gaeumannomyces Graminis/Liquid Culture (Take-all of Cereals)
as §1, with “Mycelial fragments of” for “Conidia of”, “storage were” for “storage are”, “broth (PDB potato dextrose” for “broth (Vogels”, “photometrically 4-5” for “photometrically 3-4”

[3] = test system: Monographella nivalis (Microdochium nivale); test: Monographella Nivalis (Microdochium Nivale)/Liquid Culture (Foot Rot Cereals); type: cell-based; conditions: liquid culture, growth inhibition photometrically 4-5 days after application, compared to untreated control
Description: Monographella Nivalis (Microdochium Nivale)/Liquid Culture (Foot Rot Cereals)
as §1, with “(PDB potato dextrose” for “(Vogels”, “4-5” for “3-4”

[4] = test system: Magnaporthe grisea (Pyricularia oryzae); test: microbe, parasite or virus in culture; type: cell-based; conditions: read-out: control of Magnaporthe grisea
[5] = test system: Mycosphaerella graminicola (Septoria tritici); test: microbe, parasite or virus in culture; type: cell-based; conditions: Zymoseptoria tritici, read-out: control of Mycosphaerella graminicola
Sclerotinia sclerotiorum = test: Sclerotinia sclerotiorum/Liquid Culture (Cottony Rot); type: cell-based; conditions: liquid culture, growth inhibition photometrically 3-4 days after application, compared to untreated control
Description: Sclerotinia sclerotiorum/Liquid Culture (Cottony Rot)
as §1, with “Mycelia fragments of a newly grown liquid culture” for “Conidia”, “fungus” for “fungus from cryogenic storage”, “format)” for “format),”, “material” for “spores”

[6] = test system: Mycosphaerella arachidis (Cercospora arachidicola); test: Mycosphaerella arachidis (Cercospora arachidicola)/Liquid Culture (Early Leaf Spot); type: cell-based; conditions: 20 ppm; liquid culture, growth inhibition photometrically 4-5 days after application; compared to untreated control
Description: Mycosphaerella arachidis (Cercospora arachidicola)/Liquid Culture (Early Leaf Spot)
as §1, with “(PDB potato dextrose” for “(Vogels”, “4-5” for “3-4”

Cc1ccc2c(C3=NC(C)(C)C(C)(C)c4c(F)cccc43)n(C)nc2c1 [Compound E-28, 1-(2,6-dimethylindazol-3-yl)-5-fluoro-3,3,4,4-tetramethyl-isoquinoline]
inhibition of growth at 20 ppm [1]: ≥ 80% | inhibition of growth at 20 ppm [2]: ≥ 80% | inhibition of growth at 20 ppm (Fusarium culmorum): ≥ 80% | inhibition of growth at 20 ppm (Gaeumannomyces graminis): ≥ 80% | inhibition of growth at 20 ppm [3]: ≥ 80% | inhibition of growth at 20 ppm [4]: ≥ 80% | inhibition of growth at 20 ppm [5]: ≥ 80% | inhibition of growth at 20 ppm (Sclerotinia sclerotiorum): ≥ 80% | melting point: 137 to 138 °C

Cc1cccc2c(C3=NC(C)(C)C(C)(C)c4c(F)cccc43)n(C)nc12 [Compound E-9, 1-(2,7-dimethylindazol-3-yl)-5-fluoro-3,3,4,4-tetramethyl-isoquinoline]
inhibition of growth at 20 ppm [1]: ≥ 80% | inhibition of growth at 20 ppm [2]: ≥ 80% | inhibition of growth at 20 ppm (Fusarium culmorum): ≥ 80% | inhibition of growth at 20 ppm (Gaeumannomyces graminis): ≥ 80% | inhibition of growth at 20 ppm [3]: ≥ 80% | inhibition of growth at 20 ppm [4]: ≥ 80% | inhibition of growth at 20 ppm [5]: ≥ 80% | inhibition of growth at 20 ppm (Sclerotinia sclerotiorum): ≥ 80%

Cc1ccc2c(C3=NC(C)(C)C(C)(C)c4c(F)cccc43)n(C)nc2c1Cl [Compound E-27, 1-(7-chloro-2,6-dimethyl-indazol-3-yl)-5-fluoro-3,3,4,4-tetramethyl-isoquinoline]
inhibition of growth at 20 ppm [1]: ≥ 80% | inhibition of growth at 20 ppm [2]: ≥ 80% | inhibition of growth at 20 ppm (Fusarium culmorum): ≥ 80% | inhibition of growth at 20 ppm (Gaeumannomyces graminis): ≥ 80% | inhibition of growth at 20 ppm [3]: ≥ 80% | inhibition of growth at 20 ppm [4]: ≥ 80% | inhibition of growth at 20 ppm [5]: ≥ 80% | inhibition of growth at 20 ppm (Sclerotinia sclerotiorum): ≥ 80% | melting point: 113 to 116 °C

Cn1nc2ccccc2c1C1=NC(C)(C)C(C)(C)c2c(F)cccc21 [Compound E-1, 5-fluoro-3,3,4,4-tetramethyl-1-(2-methylindazol-3-yl)isoquinoline]
inhibition of growth at 20 ppm [1]: ≥ 80% | inhibition of growth at 20 ppm [2]: ≥ 80% | inhibition of growth at 20 ppm (Fusarium culmorum): ≥ 80% | inhibition of growth at 20 ppm (Gaeumannomyces graminis): ≥ 80% | inhibition of growth at 20 ppm [3]: ≥ 80% | control of Mycosphaerella arachidis [6]: at least 80% | inhibition of growth at 20 ppm [4]: ≥ 80% | inhibition of growth at 20 ppm [5]: ≥ 80% | inhibition of growth at 20 ppm (Sclerotinia sclerotiorum): ≥ 80% | melting point: 113 to 115 °C

Cn1nc2c(Cl)cccc2c1C1=NC(C)(C)C(C)(C)c2c(F)cccc21 [Compound E-22, 1-(7-chloro-2-methyl-indazol-3-yl)-5-fluoro-3,3,4,4-tetramethyl-isoquinoline]
inhibition of growth at 20 ppm [1]: ≥ 80% | inhibition of growth at 20 ppm (Fusarium culmorum): ≥ 80% | inhibition of growth at 20 ppm [3]: ≥ 80% | inhibition of growth at 20 ppm [4]: ≥ 80% | inhibition of growth at 20 ppm [5]: ≥ 80% | melting point: 45 to 47 °C

Cn1nc2c(Cl)c(Cl)ccc2c1C1=NC(C)(C)C(C)(C)c2c(F)cccc21 [Compound E-23, 1-(6,7-dichloro-2-methyl-indazol-3-yl)-5-fluoro-3,3,4,4-tetramethyl-isoquinoline]
inhibition of growth at 20 ppm [1]: ≥ 80% | inhibition of growth at 20 ppm [2]: ≥ 80% | inhibition of growth at 20 ppm (Gaeumannomyces graminis): ≥ 80% | inhibition of growth at 20 ppm [3]: ≥ 80% | inhibition of growth at 20 ppm [4]: ≥ 80% | inhibition of growth at 20 ppm [5]: ≥ 80% | inhibition of growth at 20 ppm (Sclerotinia sclerotiorum): ≥ 80%

Cc1ccc2c(C3=NC(C)(C)C(C)(C)c4c(F)cccc43)n(C)nc2c1C [Compound E-30, 5-fluoro-3,3,4,4-tetramethyl-1-(2,6,7-trimethylindazol-3-yl)isoquinoline]
inhibition of growth at 20 ppm [1]: ≥ 80% | inhibition of growth at 20 ppm [2]: ≥ 80% | inhibition of growth at 20 ppm [3]: ≥ 80% | inhibition of growth at 20 ppm [4]: ≥ 80% | inhibition of growth at 20 ppm [5]: ≥ 80% | inhibition of growth at 20 ppm (Sclerotinia sclerotiorum): ≥ 80% | melting point: 111 to 113 °C
